Reference: PubChem BioAssay AID330 (DTP/NCI, 2004)
Values joined by “and” are separate entries in the source; they are usually repeats but may differ in a detail not shown here. Identical values can stand only once. Toxic doses and inconclusive results are not listed. Rule for the calls: active = survival T/C of 150% or more; inactive = T/C below 125% in these data.

Tested on: P388 leukemia ip, CD2F1 mice, survival T/C
Assay: NCI In Vivo Anticancer Drug Screen. Data for tumor model P388 Leukemia (intraperitoneal) in CD2F1 (CDF1) mice
Details: endpoint: median survival time, higher = longer survival
Summary of the method: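 Mice carrying the transplanted tumor received test compound or vehicle. Survival was recorded in each group, and the value is the treated-group measurement divided by that of the vehicle-treated control group.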

[1] = dose: 60.0 mg/kg/injection, schedule: Q01DX005 (ip), vehicle: Klucel (hydroxypropylcellulose) (HPC)
[2] = dose: 120.0 mg/kg/injection, schedule: Q01DX005 (ip), vehicle: Klucel (hydroxypropylcellulose) (HPC)
[3] = dose: 240.0 mg/kg/injection, schedule: Q01DX005 (ip), vehicle: Klucel (hydroxypropylcellulose) (HPC)
[4] = dose: 50.0 mg/kg/injection, schedule: Q01DX005 (ip), vehicle: saline with Tween-80
[5] = dose: 100.0 mg/kg/injection, schedule: Q01DX005 (ip), vehicle: saline with Tween-80
[6] = dose: 200.0 mg/kg/injection, schedule: Q01DX005 (ip), vehicle: saline with Tween-80
[7] = dose: 15.0 mg/kg/injection, schedule: Q01DX005 (ip), vehicle: saline with Tween-80
[8] = dose: 30.0 mg/kg/injection, schedule: Q01DX005 (ip), vehicle: saline with Tween-80
[9] = dose: 60.0 mg/kg/injection, schedule: Q01DX005 (ip), vehicle: saline with Tween-80
[10] = dose: 12.5 mg/kg/injection, schedule: Q01DX009 (ip), vehicle: saline
[11] = dose: 25.0 mg/kg/injection, schedule: Q01DX009 (ip), vehicle: saline
[12] = dose: 50.0 mg/kg/injection, schedule: Q01DX009 (ip), vehicle: saline
[13] = dose: 100.0 mg/kg/injection, schedule: Q01DX009 (ip), vehicle: saline
[14] = dose: 200.0 mg/kg/injection, schedule: Q01DX009 (ip), vehicle: saline
[15] = dose: 50.0 mg/kg/injection, schedule: Q01DX009 (ip), vehicle: Klucel (hydroxypropylcellulose) (HPC)
[16] = dose: 100.0 mg/kg/injection, schedule: Q01DX009 (ip), vehicle: Klucel (hydroxypropylcellulose) (HPC)
[17] = dose: 200.0 mg/kg/injection, schedule: Q01DX009 (ip), vehicle: Klucel (hydroxypropylcellulose) (HPC)
[18] = dose: 400.0 mg/kg/injection, schedule: Q01DX009 (ip), vehicle: Klucel (hydroxypropylcellulose) (HPC)
[19] = dose: 50.0 mg/kg/injection, schedule: Q01DX005 (ip), vehicle: Klucel (hydroxypropylcellulose) (HPC)
[20] = dose: 100.0 mg/kg/injection, schedule: Q01DX005 (ip), vehicle: Klucel (hydroxypropylcellulose) (HPC)
[21] = dose: 60.0 mg/kg/injection, schedule: Q01DX005 (ip), vehicle: saline
[22] = dose: 120.0 mg/kg/injection, schedule: Q01DX005 (ip), vehicle: saline
[23] = dose: 240.0 mg/kg/injection, schedule: Q01DX005 (ip), vehicle: saline

Measured: T/C

CC12CCC(C(=O)C1=O)C2(C)C (stereo not drawn)
inactive: dose: 50.0 mg/kg/injection, schedule: Q01DX009 (ip), vehicle: saline with Tween-80 102 % of control | dose: 100.0 mg/kg/injection, schedule: Q01DX009 (ip), vehicle: saline with Tween-80 93 % of control | dose: 200.0 mg/kg/injection, schedule: Q01DX009 (ip), vehicle: saline with Tween-80 95 % of control | dose: 400.0 mg/kg/injection, schedule: Q01DX009 (ip), vehicle: saline with Tween-80 97 % of control

CC(C)[Si]1(C(C)C)N[Si](C(C)C)(C(C)C)N[Si](C(C)C)(C(C)C)N1
inactive: [1] 108 % of control | [2] 93 % of control | [3] 100 % of control

O=C(Nc1ccccc1)Nc1c2c(nc3ccccc13)CCCCC2
inactive: [4] 86 % of control | [5] 89 % of control | [6] 90 % of control

COC1=Nc2ccccc2S(=O)(=O)C=C1
inactive: [7] 101 % of control | [8] 104 % of control | [9] 116 % of control and 119 % of control

O=C(CCN1CC1)Nc1ccc(NC(=O)CCN2CC2)cc1
active: dose: 10.0 mg/kg/injection, schedule: Q04DX003 (ip), vehicle: Klucel (hydroxypropylcellulose) (HPC) 198 % of control | dose: 20.0 mg/kg/injection, schedule: Q04DX003 (ip), vehicle: Klucel (hydroxypropylcellulose) (HPC) 227 % of control

Nc1cc(=O)c2[nH]cnc2[nH]1
inactive: [10] 103 % of control | [11] 90 % of control | [4] 101 % of control | [12] 98 % of control and 101 % of control | [5] 106 % of control | [13] 103 % of control | [6] 107 % of control | [14] 88 % of control

O=C(OCCCCCl)c1ccccc1
inactive: dose: 50.0 mg/kg/injection, schedule: Q01DX009 (ip), vehicle: saline + Tween-80 + alcohol 104 % of control | dose: 100.0 mg/kg/injection, schedule: Q01DX009 (ip), vehicle: saline + Tween-80 + alcohol 104 % of control | dose: 200.0 mg/kg/injection, schedule: Q01DX009 (ip), vehicle: saline + Tween-80 + alcohol 110 % of control | dose: 400.0 mg/kg/injection, schedule: Q01DX009 (ip), vehicle: saline + Tween-80 + alcohol 112 % of control

Cc1cc(N=Cc2cccs2)ccc1Br
inactive: [15] 101 % of control and 98 % of control | [16] 100 % of control and 101 % of control and 102 % of control | [17] 102 % of control and 95 % of control | [18] 105 % of control

Cc1cc(=O)n(-c2ccc(S(=O)(=O)Nc3nccs3)cc2)c(C)c1C(=O)O
inactive: [4] 103 % of control | [5] 98 % of control | [6] 100 % of control

O=c1c2cc3ccccc3cc2c(=O)n2n1CC=CC2
inactive: [15] 97 % of control | [16] 90 % of control

CN(CCCNc1c2ccccc2nc2ccccc12)CCCNc1c2ccccc2nc2ccccc12
inactive: dose: 1.25 mg/kg/injection, schedule: Q01DX009 (ip), vehicle: other 115 % of control

N#CCCn1nc(SCc2ccccc2)c(=O)[nH]c1=O
inactive: [4] 95 % of control | [5] 94 % of control | [6] 92 % of control

CC1CCC(=O)N1C (stereo not drawn)
inactive: [13] 105 % of control | [14] 100 % of control | dose: 400.0 mg/kg/injection, schedule: Q01DX009 (ip), vehicle: saline 113 % of control

c1ccc(CN2CCOC2)cc1
inactive: [10] 108 % of control | [11] 108 % of control | [12] 118 % of control and 124 % of control | [13] 123 % of control | [14] 116 % of control

CC(C)C[CH2][Pb]([Cl])([CH2]CC(C)C)[CH2]CC(C)C
inactive: dose: 0.06 mg/kg/injection, schedule: Q01DX009 (ip), vehicle: saline + alcohol 103 % of control | dose: 0.13 mg/kg/injection, schedule: Q01DX009 (ip), vehicle: saline + alcohol 108 % of control | dose: 0.25 mg/kg/injection, schedule: Q01DX009 (ip), vehicle: saline + alcohol 105 % of control | dose: 0.5 mg/kg/injection, schedule: Q01DX009 (ip), vehicle: saline + alcohol 119 % of control | dose: 1.0 mg/kg/injection, schedule: Q01DX009 (ip), vehicle: saline + alcohol 118 % of control | dose: 2.0 mg/kg/injection, schedule: Q01DX009 (ip), vehicle: saline 111 % of control | dose: 4.0 mg/kg/injection, schedule: Q01DX009 (ip), vehicle: saline 110 % of control | dose: 8.0 mg/kg/injection, schedule: Q01DX009 (ip), vehicle: saline 100 % of control

Cc1[nH]ccc(=O)c1OC(=O)C12CC3CC(CC(C3)C1)C2
inactive: [19] 94 % of control and 98 % of control | [20] 91 % of control and 97 % of control | dose: 200.0 mg/kg/injection, schedule: Q01DX005 (ip), vehicle: Klucel (hydroxypropylcellulose) (HPC) 101 % of control and 95 % of control | dose: 400.0 mg/kg/injection, schedule: Q01DX005 (ip), vehicle: Klucel (hydroxypropylcellulose) (HPC) 103 % of control and 98 % of control

CCN1C(Cl)=NS(=O)(=O)c2ccccc21
inactive: [7] 116 % of control | [8] 113 % of control | [9] 100 % of control

COC1=CC(=O)C2CC=C(C)C3CC(=O)OC1C23C (stereo not drawn)
inactive: dose: 100.0 mg/kg/injection, schedule: Q04DX002 (ip), vehicle: Klucel (hydroxypropylcellulose) (HPC) 100 % of control | dose: 200.0 mg/kg/injection, schedule: Q04DX002 (ip), vehicle: Klucel (hydroxypropylcellulose) (HPC) 95 % of control | dose: 400.0 mg/kg/injection, schedule: Q04DX002 (ip), vehicle: Klucel (hydroxypropylcellulose) (HPC) 98 % of control

O=c1[nH]oc2c1CCNC2
inactive: dose: 100.0 mg/kg/injection, schedule: Q04DX003 (ip), vehicle: saline 98 % of control | dose: 200.0 mg/kg/injection, schedule: Q04DX003 (ip), vehicle: saline 103 % of control

O=C1SCCC1CO (stereo not drawn)
inactive: dose: 25.0 mg/kg/injection, schedule: Q04DX003 (ip), vehicle: saline 100 % of control | dose: 50.0 mg/kg/injection, schedule: Q04DX003 (ip), vehicle: saline 106 % of control

COc1cc2c(cc1OC)C13CCN4C(=O)C(=O)C(CC41)C1C(OCC(=O)O)CC(=O)N2C13 (stereo not drawn)
inactive: [21] 101 % of control | [22] 101 % of control | [23] 100 % of control

O=c1c(CO)c(-c2ccccc2)sc2ccccc12
inactive: [1] 96 % of control | [2] 97 % of control | [3] 95 % of control

S=c1[nH]c2ccc(Cl)cc2s1
inactive: [15] 98 % of control | [16] 101 % of control | [17] 90 % of control | [18] 95 % of control

OCCC(CCN1CCOCC1)(c1ccccc1)C1(O)CCCC1 (stereo not drawn)
inactive: [21] 95 % of control | [22] 98 % of control | [23] 92 % of control

OC12CCC(c3ccccc3)(CC1)CC2
inactive: [15] 104 % of control | [16] 100 % of control | [17] 100 % of control

O=C1/C(=C/c2cccc([N+](=O)[O-])c2)SC(=S)N1C1CC1
inactive: [19] 89 % of control | [20] 89 % of control

O=Nc1ccc(Cl)cc1C(=O)c1ccccc1
inactive: [12] 90 % of control | [13] 104 % of control | [14] 97 % of control

CCCCCCCC/C=C\CCCCCCCC(=O)OCC(COC(=O)CCCCCCC/C=C\CCCCCCCC)OC(=O)N(CCCl)CCCl
inactive: [8] 118 % of control | [9] 115 % of control
active: dose: 120.0 mg/kg/injection, schedule: Q01DX005 (ip), vehicle: saline with Tween-80 174 % of control | dose: 240.0 mg/kg/injection, schedule: Q01DX005 (ip), vehicle: saline with Tween-80 205 % of control and 259 % of control

CC1=NS(C)(=O)=c2ccccc2=N1 (stereo not drawn)
inactive: dose: 100.0 mg/kg/injection, schedule: Q04DX003 (ip), vehicle: saline with Tween-80 105 % of control | dose: 200.0 mg/kg/injection, schedule: Q04DX003 (ip), vehicle: saline with Tween-80 105 % of control | dose: 400.0 mg/kg/injection, schedule: Q04DX003 (ip), vehicle: saline with Tween-80 106 % of control
